Assay results reported in US20150250167A1, “COMPOSITION FOR NOXIOUS ORGANISMS-CONTROLLING AGENT AND METHOD FOR USING THE SAME” (priority 2001, published 2015).

Tests used:
[1] = test system: Rice Blast; settings: in vivo
[2] = test system: Brown Rice Planthopper (Nilaparvata lugens); experiment: Insecticidal test on brown rice planthopper, rice seedling dipping; assay type: in vivo; settings: 100 ppm, single agent; for Death rate (%) After 1 days: after 1 day
[3] = test system: Resistant Strain of Two-Spotted Spider Mite; settings: 100 ppm, single agent, 2 days after spraying
[4] = test system: Smaller Tea Tortrix (Adoxophyes orana fosciota); experiment: Insecticidal test on smaller tea tortrix, tea leaf dipping; assay type: in vivo; settings: single agent 0.3 ppm, 4th instar larvae, 25° C.
Experimental: Insecticidal Test on Smaller Tea Tortrix (Adoxophyes orana fosciota)
Tea leaves were dipped in a solution of a chemical diluted to a prescribed concentration for 30 seconds. […] Four days and seven days after the treatment, the number of alive insects were counted, from which percentage of death was calculated.

[5] = test system: Rice Water Weevil (Lissorhoptrus oryzophilus); experiment: Control of rice water weevil on paddyfield rice by nursery box application, extent of injury; assay type: in vivo; settings: 0.5 g ai/Box, single agent
[6] = test system: Southern Root-Knot Nematode (Meloidogyne incognita); experiment: Test for the effect on southern root-knot nematode, soil blending with granular preparation; assay type: in vivo; settings: 300 g ai/10a, single agent, 60 days after treatment
Excerpt: Test for the Effect on Southern Root-Knot Nematode (Meloidogyne incognita)
Two killograms of a soil polluted with southern root-knot nematode was blended with a predetermined dose of a granular preparation. The mixture was filled into a 1/5,000 are Wagner pot. After sowing melon seeds and carrying out the treatment of the present invention, the pot was left to stand in a greenhouse. Sixty days after the treatment, 25 g of the soil was sampled out, the nematode was separated therefrom according to the method of Berman, and the numbers of nematodes were counted after 48 hours.
In the tables, “ai” means active ingredient.

[7] = test system: Diamondback Moth (Plutella xyloxtella); experiment: Control of diamondback moth on cabbage by soil treatment, number of parasitic insects; assay type: in vivo; settings: 5 mg ai/hill, 21 days after transplanting
Experimental: (§1) Test for the Control of Diamondback Moth (Plutella xyloxtella) and Aphid on Cabbage by Soil Treatment
A granular preparation was mixed into bed soil, and the mixture was filled into a cell seedling box and sown with seeds of cabbage (variety: YR Seitoku). Otherwise, cell seedling planted cabbage was treated with the granular agent either by a treatment in the foliage leaf extraction period, or by a pre-transplanting treatment, or by a pricking-in hole treatment, or by a plant foot treatment after the planting. Twenty one days after the transplanting (in the middle of June), the number of parasitic insects was counted on 30 hills in the case of diamondback moth and on 10 hills in the case of aphid.

[8] = test system: Citrus Yellow Thrips (Frankliniella occidentalis); experiment: Control of citrus yellow thrips on egg plant by combined use with natural enemy pesticide, number of thrips; assay type: in vivo; settings: 100 ppm, spray
[9] = test system: Rice Leafroller (Cnaphalocrosis medinalis); experiment: Control of rice leafroller on paddyfield rice by nursery box application, number of injured leaves; assay type: in vivo; settings: 0.5 g ai/Box, single agent
Experimental: (§2) Test for the Control of Small Brown Planthopper (Laodelphax striatellus) and Rice Leafroller (Cnaphalocrosis medinalis) on Paddyfield Rice Plant by Nursery Box Application
(§3) Fifty grams of a granular preparation was applied to rice plant (variety: Nihombare) cultured in a nursery box, after which the rice plant was transplanted to the main paddy field (in the middle of May). The controlling effect against small brown planthopper was evaluated by investigating the number of parasitic insects on 30 hills per each plot, 40 days and 60 days after the transplantation. The controlling effect against rice leafroller was evaluated by investigating the number of injured leaves on 100 hills per each plot, 50 days after the transplantation.

[10] = test system: Small Brown Planthopper (Laodelphax striatellus); experiment: Control of small brown planthopper on paddyfield rice by nursery box application, number of parasitic insects; assay type: in vivo; settings: 0.5 g ai/Box, single agent
Experimental: as §2, §3

[11] = test system: Cutworm; experiment: Test for the effect against cutworm on beet, drench, number of injured hills per 100 hills; assay type: in vivo; settings: 15 g ai/10a
Experimental: Test for the Effect Against Cutworm on Beet
Beet seedlings (variety: Monoace S) planted in a paper pot was treated with 3 L/m^2 of a solution of an agent diluted to a predetermined concentration, by the method of drench. Just after the drench, the plant was set. Predetermined days after the setting, the number of injured hills per 100 hills was counted.

[12] = test system: Aphid; experiment: Control of aphid on cabbage by soil treatment, number of parasitic insects; assay type: in vivo; settings: 5 mg ai/hill, 21 days after transplanting
Experimental: as §1
A granular preparation was mixed into bed soil, and the mixture was filled into a cell seedling box and sown with seeds of cabbage (variety: YR Seitoku). Otherwise, cell seedling planted cabbage was treated with the granular agent either by a treatment in the foliage leaf extraction period, or by a pre-transplanting treatment, or by a pricking-in hole treatment, or by a plant foot treatment after the planting. […]

[13] = test system: Green Peach Aphid (Myzus persicae); experiment: Insecticidal test on green peach aphid, spraying of Chinese cabbage, control value; assay type: in vivo; settings: 100 ppm, single agent, 6 days after spraying
[14] = true leaf extraction season treatment

| SMILES | Areal rate of disease spot (%) After 60 days [1] [%] | Death rate (%) After 1 days [2] [%] | Death rate (%) After 5 days [2] [%] | Death rate (%) [3] [%] | Death rate (%) After 4 days [4] [%] | Death rate (%) After 7 days [4] [%] | Extent of injury After 21 days [5] | Number of nematodes per 25 g of soil sample [6] | Number of parasitic insects per 30 hills, Diamondback moth ([7]; plant foot treatment) | Number of parasitic insects per 30 hills, Diamondback moth ([7]; pre-transplanting treatment) | Number of parasitic insects per 30 hills, Diamondback moth ([7]; pricking-in hole treatment) | Number of parasitic insects per 30 hills, Diamondback moth ([7]; soil incorporation) | Number of parasitic insects per 30 hills, Diamondback moth [7, 14] | Number of parasitic insects per 20 leaves, After 60 days [8] | Number of parasitic insects per 20 leaves, After 90 days [8] | Number of parasitic insects per 20 leaves, After 120 days [8] | Percentage of injured leaves (%) After 50 days [9] [%] | Number of parasitic planthoppers per 30 hills After 40 days [10] | Number of parasitic planthoppers per 30 hills After 60 days [10] | Number of injured hills per 100 hills, After 60 days [11] | other results |
| --- | --- | --- | --- | --- | --- | --- | --- | --- | --- | --- | --- | --- | --- | --- | --- | --- | --- | --- | --- | --- | --- |
| Cc1cc(C(F)(F)C(F)(F)F)ccc1NC(=O)c1cccc(I)c1C(=O)NC(C)C [Compound 41] | 8.5 | 0 | 0 | 0 | 0 | 30 | 43.2 | 31 | 2 | 1 | 2 | 3 | 2 | 18 | 29 | 59 | 0.35 | 333 | 385 | 0 | Number of injured hills per 100 hills, After 90 days [11]: 7; Number of injured hills per 100 hills, After 120 days [11]: 21; Number of parasitic insects per 30 hills, Aphid ([12]; plant foot treatment): 456; Number of parasitic insects per 30 hills, Aphid ([12]; pre-transplanting treatment): 458; Number of parasitic insects per 30 hills, Aphid ([12]; pricking-in hole treatment): 511; Number of parasitic insects per 30 hills, Aphid ([12]; soil incorporation): 457; Number of parasitic insects per 30 hills, Aphid [12, 14]: 495; Control degree (%) [13]: 0% |
| Cc1cc(C(F)(C(F)(F)F)C(F)(F)F)ccc1NC(=O)c1cccc(I)c1C(=O)NC(C)C [Compound 43] | 8.9 | 0 | 0 | 0 | 0 | 35 | 44.3 | 36 | 2 | 3 | 1 | 2 | 2 | 23 | 31 | 57 | 0.17 | 309 | 334 | 0 | Number of injured hills per 100 hills, After 90 days [11]: 6; Number of injured hills per 100 hills, After 120 days [11]: 19; Number of parasitic insects per 30 hills, Aphid ([12]; plant foot treatment): 467; Number of parasitic insects per 30 hills, Aphid ([12]; pre-transplanting treatment): 482; Number of parasitic insects per 30 hills, Aphid ([12]; pricking-in hole treatment): 447; Number of parasitic insects per 30 hills, Aphid ([12]; soil incorporation): 501; Number of parasitic insects per 30 hills, Aphid [12, 14]: 448; Control degree (%) [13]: 0% |
| Cc1cc(C(F)(F)C(F)(F)F)ccc1NC(=O)c1cccc(Cl)c1C(=O)NC(C)C [Compound 19] | 8.3 | 0 | 0 | 0 | 0 | 30 | 38.9 | 36 | 2 | 1 | 1 | 1 | 2 | 20 | 27 | 55 | 0.16 | 325 | 389 | 0 | Number of injured hills per 100 hills, After 90 days [11]: 8; Number of injured hills per 100 hills, After 120 days [11]: 21; Number of parasitic insects per 30 hills, Aphid ([12]; plant foot treatment): 489; Number of parasitic insects per 30 hills, Aphid ([12]; pre-transplanting treatment): 399; Number of parasitic insects per 30 hills, Aphid ([12]; pricking-in hole treatment): 467; Number of parasitic insects per 30 hills, Aphid ([12]; soil incorporation): 445; Number of parasitic insects per 30 hills, Aphid [12, 14]: 457; Control degree (%) [13]: 0% |
| Cc1cc(OC(F)(F)F)ccc1NC(=O)c1cccc(I)c1C(=O)NC(C)C [Compound 44] | 9.1 | 0 | 0 | 0 | 0 | 20 | 45.9 | 29 | 2 | 3 | 3 | 3 | 2 | 25 | 33 | 53 | 0.24 | 323 | 358 | 0 | Number of injured hills per 100 hills, After 90 days [11]: 7; Number of injured hills per 100 hills, After 120 days [11]: 20; Number of parasitic insects per 30 hills, Aphid ([12]; plant foot treatment): 492; Number of parasitic insects per 30 hills, Aphid ([12]; pre-transplanting treatment): 498; Number of parasitic insects per 30 hills, Aphid ([12]; pricking-in hole treatment): 478; Number of parasitic insects per 30 hills, Aphid ([12]; soil incorporation): 449; Number of parasitic insects per 30 hills, Aphid [12, 14]: 502; Control degree (%) [13]: 0% |
